Assay: xn = mol fraction of the nth substance listed
Details: 100 kPa, Liquid; for speed of sound: Frequency=3 MHz, Sing-around technique in a fixed-path interferometer; for mass density: Vibrating tube method

O=C1CCCCCC1 [cycloheptanone] + C1CCOCC1
Details | mass density, 293.15 K [kg/m3] | mass density, 298.15 K [kg/m3] | mass density, 303.15 K [kg/m3] | mass density, 308.15 K [kg/m3] | speed of sound, 293.15 K [m/s] | speed of sound, 298.15 K [m/s] | speed of sound, 303.15 K [m/s] | speed of sound, 308.15 K [m/s]
x2 = 0.0845 | 948.05 | 943.9 | 939.65 | 935.43 | 1457.2 | 1435 | 1411.9 | 1389.1
x2 = 0.1276 | 946.02 | 941.88 | 937.63 | 933.42 | 1447.3 | 1424.9 | 1401.8 | 1378.9
x2 = 0.1794 | 943.48 | 939.35 | 935.11 | 930.88 | 1435.5 | 1413 | 1389.8 | 1366.9
x2 = 0.2172 | 941.57 | 937.43 | 933.19 | 928.95 | 1427.2 | 1404.5 | 1381.3 | 1358.4
x2 = 0.254 | 939.66 | 935.51 | 931.26 | 927.02 | 1419.2 | 1396.5 | 1373.2 | 1350.2
x2 = 0.3098 | 936.64 | 932.46 | 928.23 | 923.95 | 1407.4 | 1384.5 | 1361.1 | 1338.2
x2 = 0.341 | 934.9 | 930.72 | 926.47 | 922.18 | 1400.9 | 1378 | 1354.6 | 1331.6
x2 = 0.3982 | 931.59 | 927.36 | 923.12 | 918.8 | 1389.4 | 1366.4 | 1342.9 | 1319.9
x2 = 0.4407 | 929.02 | 924.78 | 920.53 | 916.18 | 1381.2 | 1358 | 1334.6 | 1311.6
x2 = 0.4986 | 925.38 | 921.12 | 916.82 | 912.46 | 1370.2 | 1346.9 | 1323.6 | 1300.6
x2 = 0.5312 | 923.24 | 918.96 | 914.66 | 910.27 | 1364.3 | 1340.9 | 1317.5 | 1294.6
x2 = 0.5779 | 920.07 | 915.78 | 911.43 | 907.03 | 1355.9 | 1332.6 | 1309.2 | 1286.3
x2 = 0.6295 | 916.42 | 912.11 | 907.7 | 903.26 | 1347.1 | 1323.7 | 1300.3 | 1277.4
x2 = 0.6717 | 913.29 | 908.95 | 904.49 | 900.02 | 1340.1 | 1316.6 | 1293.3 | 1270.5
x2 = 0.7229 | 909.34 | 904.97 | 900.41 | 895.9 | 1331.9 | 1308.4 | 1285.2 | 1262.4
x2 = 0.7686 | 905.66 | 901.22 | 896.58 | 892.03 | 1324.8 | 1301.4 | 1278.2 | 1255.4
x2 = 0.8202 | 901.28 | 896.77 | 892.03 | 887.39 | 1317.2 | 1293.7 | 1270.6 | 1247.9
x2 = 0.8742 | 896.48 | 891.84 | 886.98 | 882.23 | 1309.5 | 1286.1 | 1263 | 1240.4

Reference: the NIST ThermoML archive (doi:10.1021/acs.jced.6b00606)
